This assay deals with recombinant DYRK1A kinase (Homo sapiens (Human), UniProt Q13627). Kind of assay: DYRK1A kinase assay (Ser/Thr 18 peptide Z-lyte FRET assay). Format: biochemical. The conditions noted are these: DYRK1A kinase activity; 15 μM ATP, 1 h room temperature; method text calls the value IC50. As for the experimental part:
Representative compounds were screened using the assay procedure for DYRK1A kinase activity as described below.
Each compound was dissolved in DMSO as a 10 mM stock and used to prepare compound source plates. Serial dilution (1:3, 11-point dose-response curves from 10 μM to 0.00016 μM) and compound transfer was performed using the ECHO 550 (Labcyte, Sunnyvale, CA) into 1536-well black-walled round bottom plates (Corning).
The DYRK1A kinase assay was run using the Ser/Thr 18 peptide Z-lyte assay kit according to manufacturer's instructions (Life Technologies—a Division of Thermo-Fisher). This is a non-radioactive assay using fluorescence resonance energy transfer (FRET) between coumarin and fluorescein to detect kinase activity which is represented as a ratio of coumarin emission/fluorescein emission.
Briefly, recombinant DYRK1A kinase, ATP and Ser/Thr peptide 18 were prepared in 1× Kinase buffer to final concentrations of 0.25 μg/mL, 15 μM, and 4 μM respectively. The mixture was allowed to incubate with the representative compounds for one hour at room temperature. All reactions were performed in duplicate. Unphosphorylated (“0% Control”) and phosphorylated (“100% control”) forms of Ser/Thr 18 served as control reactions. Additionally, an 11-point dose-response curve of Staurosporine (1 uM top) was run to serve as a positive compound control.
After incubation, Development Reagent A was diluted in Development Buffer then added to the reaction and allowed to further incubate for one hour at room temperature. The plate was read at Ex 400 Em […] to detect the coumarin signal and Ex 400 Em 520 to measure the signal (EnVision Multilabel Plate Reader, PerkinElmer).
The Emission ratio (Em) was calculated as a ratio of the coumarin (C) emission signal (at 445 nm)/Fluorescein (F) emission signal (at 520 nm). The percent phosphorylation was then calculated using the following formula: [1−((Em ratio×F100%)−C100%)/((C0%−C100%)+(Em ratio×(F100%−F0%)))]. Dose-response curves were generated, and inhibitory concentration (IC50) values were calculated using non-linear regression curve fit in the Dotmatics' Studies Software (Bishops Stortford, UK).

One may read the EC50 as the concentration at which the effect is half-maximal. For the compound `C[C@H](Nc1ncc2c(-c3ccn4ncnc4c3)c[nH]c2n1)C(F)(F)F` [Compound 807, (S)-5-([1,2,4]Triazolo[1,5-a]pyridin-7-yl)-N-(1,1,1-trifluoropropan-2-yl)-7H-pyrrolo[2,3-d]pyrimidin-2-amine], the EC50 turned out to be 165 nM. Under `CN1CCN(c2ccc(CNc3ncc4c(-c5ccn6ncnc6c5)c[nH]c4n3)cn2)CC1` [Compound 808, 5-([1,2,4]Triazolo[1,5-a]pyridin-7-yl)-N-((6-(4-methylpiperazin-1-yl)pyridin-3-yl)methyl)-7H-pyrrolo[2,3-d]pyrimidin-2-amine] stands 52.3 nM; under `CC(C)Cc1ncc2c(-c3ccc4nnn(C)c4c3)c[nH]c2n1` [Compound 810, 6-(2-Isobutyl-7H-pyrrolo[2,3-d]pyrimidin-5-yl)-1-methyl-1H-benzo[d][1,2,3]triazole], 66 nM; under `Cn1nnc2ccc(-c3c[nH]c4nc(CCC(F)(F)F)ncc34)cc21` [Compound 811, 1-Methyl-6-(2-(3,3,3-trifluoropropyl)-7H-pyrrolo[2,3-d]pyrimidin-5-yl)-1H-benzo[d][1,2,3]triazole], 33.3 nM. Turning to `Cn1nnc2ccc(-c3c[nH]c4nc(NCC(C)(C)F)ncc34)cc21` [Compound 822, N-(2-Fluoro-2-methylpropyl)-5-(1-methyl-1H-benzo[d][1,2,3]triazol-6-yl)-7H-pyrrolo[2,3-d]pyrimidin-2-amine], the EC50 was 2.9 nM.

Turning to `Cn1nnc2ccc(-c3c[nH]c4nc(NCC(C)(F)F)ncc34)cc21` [Compound 823, N-(2,2-Difluoropropyl)-5-(1-methyl-1H-benzo[d][1,2,3]triazol-6-yl)-7H-pyrrolo[2,3-d]pyrimidin-2-amine], the EC50 stood at 6 nM.

Regarding `Cn1nnc2ccc(-c3c[nH]c4nc(NCC(F)(F)F)ncc34)cc21` [Compound 824, 5-(1-Methyl-1H-benzo[d][1,2,3]triazol-6-yl)-N-(2,2,2-trifluoroethyl)-7H-pyrrolo[2,3-d]pyrimidin-2-amine], the EC50 came to 3.4 nM. Consider `C[C@@H](Nc1ncc2c(-c3ccc4nnn(C)c4c3)c[nH]c2n1)C(F)(F)F` [Compound 825, (R)-5-(1-Methyl-1H-benzo[d][1,2,3]triazol-6-yl)-N-(1,1,1-trifluoropropan-2-yl)-7H-pyrrolo[2,3-d]pyrimidin-2-amine], for which the EC50 turned out to be 4.8 nM. As to `C[C@H](Nc1ncc2c(-c3ccc4nnn(C)c4c3)c[nH]c2n1)C(F)(F)F` [Compound 826, (S)-5-(1-Methyl-1H-benzo[d][1,2,3]triazol-6-yl)-N-(1,1,1-trifluoropropan-2-yl)-7H-pyrrolo[2,3-d]pyrimidin-2-amine], the 50% effective concentration (EC50) was 43 nM. Turning to `CN1CCC(Nc2ncc3c(-c4ccc5nnn(C)c5c4)c[nH]c3n2)CC1` [Compound 841, 5-(1-Methyl-1H-benzo[d][1,2,3]triazol-6-yl)-N-(1-methylpiperidin-4-yl)-7H-pyrrolo[2,3-d]pyrimidin-2-amine], the EC50 was determined as 13.6 nM. Turning to `Cn1nnc2ccc(-c3c[nH]c4nc(NC5CCOCC5)ncc34)cc21` [Compound 843, 5-(1-Methyl-1H-benzo[d][1,2,3]triazol-6-yl)-N-(tetrahydro-2H-pyran-4-yl)-7H-pyrrolo[2,3-d]pyrimidin-2-amine], the EC50 was determined as 23.2 nM.

As for `CCn1nnc2ccc(-c3c[nH]c4nc(NCC(C)(C)F)ncc34)cc21` [Compound 865, 5-(1-Ethyl-1H-benzo[d][1,2,3]triazol-6-yl)-N-(2-fluoro-2-methylpropyl)-7H-pyrrolo[2,3-d]pyrimidin-2-amine], the EC50 came to 7.3 nM. As for `Cc1nnc2ccc(-c3c[nH]c4nc(NCC(C)(C)F)ncc34)cn12` [Compound 895, N-(2-Fluoro-2-methylpropyl)-5-(3-methyl-[1,2,4]triazolo[4,3-a]pyridin-6-yl)-7H-pyrrolo[2,3-d]pyrimidin-2-amine], the EC50 amounted to 83.2 nM. Under `CC(C)Cc1ncc2c(-c3ccc4nccn4n3)c[nH]c2n1` [Compound 897, 5-(Imidazo[1,2-b]pyridazin-6-yl)-2-isobutyl-7H-pyrrolo[2,3-d]pyrimidine] stands 66.8 nM; under `CC(C)(C)CNc1ncc2c(-c3ccc4nccn4n3)c[nH]c2n1` [Compound 907, 5-(Imidazo[1,2-b]pyridazin-6-yl)-N-neopentyl-7H-pyrrolo[2,3-d]pyrimidin-2-amine], 8.8 nM. Consider `FC(F)(F)CNc1ncc2c(-c3ccc4nccn4n3)c[nH]c2n1` [Compound 911, 5-(Imidazo[1,2-b]pyridazin-6-yl)-N-(2,2,2-trifluoroethyl)-7H-pyrrolo[2,3-d]pyrimidin-2-amine], for which the EC50 was found to be 9.6 nM.

As for `C[C@@H](Nc1ncc2c(-c3ccc4nccn4n3)c[nH]c2n1)C1CC1` [Compound 918, (R)—N-(1-Cyclopropylethyl)-5-(imidazo[1,2-b]pyridazin-6-yl)-7H-pyrrolo [2,3-d]pyrimidin-2-amine], the EC50 was found to be 3.4 nM. For the compound `c1cn2nc(-c3c[nH]c4nc(NC5CCOCC5)ncc34)ccc2n1` [Compound 930, 5-(Imidazo[1,2-b]pyridazin-6-yl)-N-(tetrahydro-2H-pyran-4-yl)-7H-pyrrolo[2,3-d]pyrimidin-2-amine], the EC50 stood at 4 nM.

On to `CC(C)(F)CNc1ncc2c(-c3ccc4ncc(Cl)n4n3)c[nH]c2n1` [Compound 952, 5-(3-chloroimidazo[1,2-b]pyridazin-6-yl)-N-(2-fluoro-2-methylpropyl)-7H-pyrrolo[2,3-d]pyrimidin-2-amine], for which the EC50 turned out to be 2.7 nM. In the case of `Cc1cn2nc(-c3c[nH]c4nc(NC(C)C)ncc34)ccc2n1` [Compound 991, N-Isopropyl-5-(2-methylimidazo[1,2-b]pyridazin-6-yl)-7H-pyrrolo[2,3-d]pyrimidin-2-amine], the 50% effective concentration (EC50) was 25.7 nM. As for `Cc1cn2nc(-c3c[nH]c4nc(NCC(C)(C)F)ncc34)ccc2n1` [Compound 995, N-(2-Fluoro-2-methylpropyl)-5-(2-methylimidazo[1,2-b]pyridazin-6-yl)-7H-pyrrolo[2,3-d]pyrimidin-2-amine], the EC50 amounted to 9.3 nM.

Consider `Cc1cnc2ccc(-c3c[nH]c4nc(NC5CCN(C)CC5)ncc34)nn12` [Compound 1057, 5-(3-Methylimidazo[1,2-b]pyridazin-6-yl)-N-(1-methylpiperidin-4-yl)-7H-pyrrolo[2,3-d]pyrimidin-2-amine], for which the EC50 stood at 9.8 nM. For the compound `CC(C)(F)CNc1ncc2c(-c3ccc4ncc(C(F)F)n4n3)c[nH]c2n1` [Compound 1081, 5-(3-(Difluoromethyl)imidazo[1,2-b]pyridazin-6-yl)-N-(2-fluoro-2-methylpropyl)-7H-pyrrolo[2,3-d]pyrimidin-2-amine], the EC50 was 2.6 nM. Under `CC(C)(F)CNc1ncc2c(-c3ccn4nccc4c3)c[nH]c2n1` [Compound 1125, N-(2-Fluoro-2-methylpropyl)-5-(pyrazolo[1,5-a]pyridin-5-yl)-7H-pyrrolo [2,3-d]pyrimidin-2-amine] stands 4.6 nM; under `C[C@@H](Nc1ncc2c(-c3ccn4nccc4c3)c[nH]c2n1)C(F)(F)F` [Compound 1128, (R)-5-(Pyrazolo[1,5-a]pyridin-5-yl)-N-(1,1,1-trifluoropropan-2-yl)-7H-pyrrolo[2,3-d]pyrimidin-2-amine], 2.4 nM.

Consider `CN1CCC(Nc2ncc3c(-c4ccn5nccc5c4)c[nH]c3n2)CC1` [Compound 1146, N-(1-Methylpiperidin-4-yl)-5-(pyrazolo[1,5-a]pyridin-5-yl)-7H-pyrrolo[2,3-d]pyrimidin-2-amine], for which the EC50 is 28.5 nM. Regarding `CC(C)(F)CNc1ncc2c(-c3ccn4ncc(F)c4c3)c[nH]c2n1` [Compound 1157, N-(2-Fluoro-2-methylpropyl)-5-(3-fluoropyrazolo[1,5-a]pyridin-5-yl)-7H-pyrrolo[2,3-d]pyrimidin-2-amine], the EC50 was found to be 68.9 nM. Turning to `CN1CCC(Nc2ncc3c(-c4ccn5ncc(-c6cnn(C)c6)c5c4)c[nH]c3n2)CC1` [Compound 1190, 5-(3-(1-Methyl-1H-pyrazol-4-yl)pyrazolo[1,5-a]pyridin-5-yl)-N-(1-methylpiperidin-4-yl)-7H-pyrrolo[2,3-d]pyrimidin-2-amine], the EC50 was found to be 3 nM.

As to `O=C(c1cnn2ccc(-c3c[nH]c4nc(C5CCC5)ncc34)cc12)N1CCCCC1` [Compound 1205, (5-(2-Cyclobutyl-7H-pyrrolo[2,3-d]pyrimidin-5-yl)pyrazolo[1,5-a]pyridin-3-yl)(piperidin-1-yl)methanone], the EC50 is 259 nM. As to `CN1CCN(C(=O)c2cnn3ccc(-c4c[nH]c5ncnc(NCC6CC6)c45)cc23)CC1` [Compound 1244, (5-(4-((cyclopropylmethyl)amino)-7H-pyrrolo[2,3-d]pyrimidin-5-yl)pyrazolo[1,5-a]pyridin-3-yl)(4-methylpiperazin-1-yl)methanone], the EC50 was found to be 494 nM.

The values above are taken from US20250129104A1, “7H-PYRROLO[2,3-D]PYRIMIDINES AND PREPARATION AND USES THEREOF” (BioSplice Therapeutics, Inc., priority 2021, published 2025).
